Assays:
BCL-XL = BCL-XL (Homo sapiens (Human), UniProt Q07817); assay: 1D 1H-NMR binding assay; settings: 4-point-rating scale; compounds 200 μM, BCL-XL 25 μM; further: key: +++: Very Active; ++: Active; +: Mild; −: Weak
Method: By observing the aliphatic region of the spectra, binding could be readily detected due to chemical shift changes in active site methyl groups of Ile, Leu, Thr, Val or Ala (region between −0.8 and 0.3 ppm). All experiments were performed with a 600 MHz spectrometer Bruker Avance 600 equipped with four rf channels and z-axis pulse-field gradients.

DOHH2 cell line = assay: Apoptosis induction in NHL B-cell lines, Annexin V-FITC/PI; format: cell-based; settings: 48 hours; read-out: IC50, % viability DOHH2
Method: (§1) After 48 hours of incubation, % viability was determined by FACSort after staining cells by the use of an Annexin V-FITC/PI Apoptosis Detection kit (BioVision Inc.). Viable cells were defined by Annexin V-negative, PI-negative cells.

RS11846 cell line [1] = assay: as above; format: cell-based; settings: 48 hours; read-out: IC50, % viability RS11846
Method: as §1

380 cell line = assay: as above; format: cell-based; settings: 48 hours, relative to DOHH2 and RS11846
Method: as §1

[2] = system: murine B-cells from BCL-2 transgenic mice; assay: Viability of cultured splenocytes, Annexin V-FITC/PI; format: cell-based; settings: 18 hours; read-out: IC50, induction of apoptosis in cultured B-cells of BCL-2 transgenic mouse
Method: Spleens were excised from sacrificed mice and cell suspensions treated with a mouse erythrocyte lysing kit (R & D Systems). Total splenocyte count was determined by typan blue dye exclusion assays using hemocytometers. The percentage of B-lymphocytes was determined by fluorescence activated cell sorter (FACS) analysis SACS-CANTO, Bectin-Dickinson Inc., Mountain View, Calif.) following staining cells with Phyco-Erytrin (PE)-conjugated anti-CD19 or -B220 antibodies (Becton Dickinson, San Jose, Calif. 95131).
After 18 hours of incubation, % viability of splenocytes was determined by FACSort after staining cells by the use of an Annexin V-FITC/PI Apoptosis Detection kit (BioVision Inc.). Viable cells were defined by Annexin V-negative, PI-negative cells.

Balb/c mice = assay: Oral toxicity study in normal Balb/c mice; format: in vivo, mouse; settings: […] oral, three weeks
Method: Compounds or vehicle control were dosed 15 times over 3 weeks, giving compounds daily for 5 consecutive days (Monday-Friday), resting on weekends.
Both compounds were provided by NCI-DTP (RAID-program). Compounds were dissolved in 100% sesame oil just before oral administration. Vehicle-control consisted of corresponding concentration of ascorbic acid suspended in 100% sesame oil.
Spleens were removed and weighed.
Whole blood (250 μl) was collected in EDTA-coated glass tubes (purple top; MICROTAINER Brand Tube with EDTA, Catalogue #365973, Becton, Dickinson and Company, New Jersey 07417-1885) via either cardiac puncture or severing the brachial artery of anesthetized mice. After thorough mixing, specimens were analyzed using a VetScan HM2 (Abaxis Inc., Union City, Calif. 94587) hematology analyzer, measuring white blood cell count (WBC), red blood cell count (RBC), platelet (PLT) count, leukocyte differential (including % lymphocyte, % monocyte and % granulocyte), hematocrit (Ht), and hemoglobin (Hb).
(Eppendorf Centrifuge 5415C) for 2 minutes to separate serum from cells and fibrin clot. The resulting serum specimens were analyzed using an automated blood chemistry analyzer (“COBAS MIRA Classic”; Roche, Indianapolis, Ind. 46250-0414) to measure alanine aminotransferase (ALT) and aspartate aminotransferase AST), blood urea nitrogen (BUN), and […].
Stomach and intestines were examined also imaged by ultrasound for evidence of dilation, an indication of GI toxicity. Briefly, mice were anesthetized using a mixture of isofluorane (5%) and oxygen gas (95%), restrained on a heated table using Aquagel Lubrication Gel (Parker Laboratories, Inc., Fairfield, N.J. 07004), and abdominal hair was removed with a chemical depilation agent (Nair™ Hair Removal, Church & Dwight Co., Inc., Princeton, N.J. 08543). Aquasonic 100 Ultrasound Transmission Gel (Parker Laboratories, Inc., Fairfield, N.J. 07004) was applied to the abdomen prior to imaging using a high-frequency probe to assess gas and intestinal distention.
Immediately after ultrasound imaging, electrocardiogram (ECG) analysis of anesthetized mice was performed using a MP150 Biopack System.

RS11846 cell line [3] = assay: Apoptosis, Annexin V and propidium iodide assay; format: cell-based, human; settings: 1-2 days; read-out: RS11846 EC50 (Annexin V- and propidium iodide assay)
Method: The apoptotic activity of the compounds against RS11846 cells was assessed by staining with Annexin V- and propidium iodide (PI). Lymphoma cell line, RS11846, was cultured in RPMI 1640 medium (Mediatech Inc., Herndon, Va. 20171) containing 10% fetal bovine serum (Mediatech Inc., Herndon, Va. 20171) and Penicillin/Streptomycin (Mediatech Inc., Herndon, Va. 20171). […] The percentage of viable cells was determined by FITC-Annexin V- and propidium iodide (PI)-labeling, using an Apoptosis Detection kit (BioVision Inc.), and analyzing stained cells by flow cytometry (FACSort; Bectin-Dickinson, Inc.; Mountain View, Calif.). Cells that were annexin-V-negative and PI-negative were considered viable.

PC3ML cells = assay: Cell viability, ATP-LITE assay; format: cell-based, human; settings: 72 hours, ATP-LITE
Method: (§2) The activity of the compounds against human cancer cell lines (PC3ML, H460, H1299, RS11846) were assessed by using the ATP-LITE assay (PerkinElmer). All cells were seeded in either F12 or RPMI1640 medium with 5 mM L-glutamine supplemented with 5% fetal bovine serum (Mediatech Inc.), penicillin and streptomycin (Omega). For maintenance, cells were cultured in 5% FBS. Cells plated into 96 well plates at varying initial densities depending on doubling time. H460 and H1299 plated at 2000 cells/well, A549 and PC3 at 3000 cells/well, and RS118456S at 10,000 cells/well. Compounds were diluted to final concentrations with 0.1% DMSO. Prior to dispensing compounds onto cells, fresh 5% media was placed into wells. Administration of compounds occurred 24 hours after seeding into the fresh media. Cell viability was evaluated using ATP-LITE reagent (PerkinElmer) after 72 hours of treatment. Data were normalized to the DMSO control-treated cells using Prism version 5.01 (Graphpad Software).

H1299 cell line = assay: Cell viability, ATP-LITE assay; format: cell-based, human; settings: 72 hours
Method: as §2

H460 cell line = assay: Cell viability, ATP-LITE assay; format: cell-based, human; settings: 72 hours, ATP-LITE
Method: as §2

RS11846 cell line [4] = assay: Cell viability, ATP-LITE assay; format: cell-based, human; settings: 72 hours
Method: as §2

GST-BCL-XL ΔTM protein = GST-BCL-XL ΔTM protein (Homo sapiens (Human), UniProt Q07817); assay: Competitive fluorescence polarization assay (FITC-Bak BH3 peptide); format: binding; settings: read-out: FPA IC50 (BCL-XL)
Method: For competitive binding assays, 100 nM GST-BCL-XL ΔTM protein was preincubated with the tested compound at varying concentrations in 47.5 μL PBS (pH=7.4) in 96-well black plates at room temperature for 10 min, then 2.5 μL of 100 nM FITC-labeled Bak BH3 peptide was added to produce a final volume of 50 μL. The wild-type and mutant Bak BH3 peptides were included in each assay plate as positive and negative controls, respectively.
IC50 was determined by fitting the experimental data to a sigmoidal dose-response nonlinear regression model (SigmaPlot 10.0.1, Systat Software, Inc., San Jose, Calif., USA). Data reported are mean of three independent experiments ±standard error (SE). […] Fluorescence polarization was measured after 10 min.

GST-BCL-XL ΔTM protein, sequence (Q07817 1-209): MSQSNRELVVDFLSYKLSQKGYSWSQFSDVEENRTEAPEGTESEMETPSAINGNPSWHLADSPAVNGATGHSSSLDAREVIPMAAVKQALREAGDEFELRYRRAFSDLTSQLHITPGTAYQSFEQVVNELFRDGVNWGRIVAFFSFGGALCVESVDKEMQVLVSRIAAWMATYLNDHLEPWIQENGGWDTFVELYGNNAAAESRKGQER
BCL-XL, sequence (Q07817 whole entry): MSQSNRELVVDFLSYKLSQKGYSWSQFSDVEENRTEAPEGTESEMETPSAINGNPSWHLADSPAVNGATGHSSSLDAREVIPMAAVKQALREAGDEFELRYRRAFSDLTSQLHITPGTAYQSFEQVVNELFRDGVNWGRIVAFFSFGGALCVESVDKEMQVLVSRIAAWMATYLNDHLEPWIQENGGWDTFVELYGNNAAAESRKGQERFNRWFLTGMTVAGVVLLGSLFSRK

Cc1cc2c(C(C)C)c(O)c(O)c(C=O)c2c(O)c1-c1c(C)cc2c(C(C)C)c(O)c(O)c(C=O)c2c1O [Gossypol, gossypol]
1D 1H-NMR Binding Assay (BCL-XL) (BCL-XL): ++
IC50 (DOHH2 cell line): ~3000 nM
IC50 (RS11846 cell line [1]): ~3000 nM
sensitivity of 380 cell line (380 cell line): slightly more resistant
IC50 [2]: ~10 µM
general condition of mice (Balb/c mice): lethagic with scruffy hair
EC50 (RS11846 cell line [3]): 4.23 µM
EC50 (PC3ML cells): 3.1 µM
EC50 (H1299 cell line): 6 µM
EC50 (H460 cell line): 3000 nM
EC50 (RS11846 cell line [4]): 2200 nM
IC50 (GST-BCL-XL ΔTM protein): 2720 nM

— US9115061B2, “Naphthalene-based inhibitors of anti-apoptotic proteins” (BURNHAM INSTITUTE FOR MEDICAL RESEARCH, priority 2007, dated 2015)
